In brackets after ≈: the same amount, converted by molar mass. Read-outs that look alike come from different tables or passages of the source.
Legend:
[1] = test system: 39 kinds of clinically isolated strains of Hemophilus influenzae; experiment: Hemophilus influenzae susceptibility test; type: cell-based; details: 39 clinically isolated strains
Protocol: (§1) In vitro antibacterial activities of the compound of the present invention, the compound represented by the formula [1] of Example 1, against various test bacteria were measured according to the microbroth dilution method (CLSI method). The activities of the compound of Reference Example 4 represented by the formula [3] was similarly measured. The MIC values (minimum inhibitory concentration, μg/ml) for the test bacteria of the bacterium symbols A, B, C, D, E, F, G, H, I, J, K, and L are shown in Table 2.
Drug susceptibility of 39 kinds of clinically isolated strains of Hemophilus influenzae was evaluated in the same manner as that of Test Example 1.

[2] = test system: Streptococcus pneumoniae 1101 strain; experiment: MIC against the strain of Test Example 4; type: cell-based; details: notes for FIG. 2, erm(B) strain
Protocol: (§2) The notes for FIG. 2 are as follows. As for significant difference relative to the medium administration group, significance was determined by the Steel test, and the symbols * and ** mean p<0.05 and p<0.01, respectively.

[3] = test system: Streptococcus pneumoniae 1101 strain; experiment: Therapeutic effect test in erythromycin resistant pneumococcus (harboring erm(B) gene)-infected animals; type: in vivo, mice; details: for number of living cells in the lung: CBA/JN mice, 3 days after inoculation, average±standard error
Protocol: As a bacterium, the Streptococcus pneumoniae 1101 strain (clinically isolated strain) was used. A frozen stock of the strain used was added to the Todd Hewitt broth supplemented with 30 vol % inactivated horse serum, and the bacterium was cultured until the turbidity (OD600) became about 0.3. The culture medium was diluted with the Todd Hewitt broth supplemented with 30 vol % inactivated horse serum to prepare a bacterial suspension for inoculation. The bacterial suspension for inoculation (0.05 mL each) was intranasally administered to mice (CBA/JN, male, 5 weeks old) for infection. The inoculated bacterial amount was 7.50×10^4 CFU/mouse, or 1.65×10^5 CFU/mouse. From the next day of the inoculation, the compound of Example 1 represented by the formula [1] […] The numbers of live cells in the lung observed 3 days after the inoculation are shown in FIG. 2 (each group consisted of 5 or 6 mice, average±standard error).
as §2

[4] = test system: Streptococcus pyogenes MSC07812; experiment: In vitro antibacterial activity, microbroth dilution (CLSI method); type: cell-based; details: bacterium symbol J
Protocol: as §1

[5] = test system: Streptococcus aureus ATCC29213; experiment: as above; type: cell-based; details: bacterium symbol L
Protocol: as §1

[6] = test system: Haemophilus influenzae NSC17960; experiment: as above; type: cell-based; details: bacterium symbol C
Protocol: as §1

[7] = test system: Streptococcus pneumoniae ATCC49619; experiment: as above; type: cell-based; details: bacterium symbol D
Protocol: as §1

[8] = test system: Streptococcus pneumoniae MSC07365; experiment: as above; type: cell-based; details: bacterium symbol H
Protocol: as §1

[9] = test system: Streptococcus pneumoniae ATCC700904; experiment: as above; type: cell-based; details: bacterium symbol G
Protocol: as §1

[10] = test system: Haemophilus influenzae ATCC43095; experiment: as above; type: cell-based; details: for MIC: Haemophilus influenzae, ATCC43095
Protocol: as §1

[11] = test system: Streptococcus pyogenes MSC07811; experiment: as above; type: cell-based; details: bacterium symbol K
Protocol: as §1

[12] = test system: Streptococcus pneumoniae MSC07465; experiment: as above; type: cell-based; details: bacterium symbol E
Protocol: as §1

[13] = test system: Haemophilus influenzae MSC17946; experiment: as above; type: cell-based; details: bacterium symbol B
Protocol: as §1

[14] = test system: Streptococcus pneumoniae MSC08607; experiment: as above; type: cell-based; details: bacterium symbol F
Protocol: as §1

[15] = test system: Streptococcus pyogenes ATCC12344; experiment: as above; type: cell-based; details: bacterium symbol I
Protocol: as §1

[16] = test system: Streptococcus pneumoniae 1028 strain; experiment: MIC against the strain of Test Example 5; type: cell-based; details: notes for FIG. 3, mef(A) strain
Protocol: (§3) The notes for FIG. 3 are as follows. As for significant difference relative to the medium administration group, significance was determined by the Steel test, and the symbols * and ** mean p<0.05 and p<0.01, respectively.

[17] = test system: Streptococcus pneumoniae 1028 strain; experiment: Therapeutic effect test in erythromycin resistant pneumococcus (harboring mef(A) gene)-infected animals; type: in vivo, mice; details: for number of living cells in the lung: CBA/JN mice, 3 days after inoculation
Protocol: As a bacterium, the Streptococcus pneumoniae 1028 strain (clinically isolated strain) was used. A frozen stock of the strain used was added to the Todd Hewitt broth supplemented with 30 vol % inactivated horse serum, and the bacterium was cultured until the turbidity (OD600) became about 0.3. The culture was diluted with the Todd Hewitt broth supplemented with 30 vol % inactivated horse serum to prepare a bacterial suspension for inoculation. The bacterial suspension for inoculation (0.05 mL each) was intranasally administered to mice (CBA/JN, male, 5 weeks old) for infection. The inoculated bacterial amount was 3.45×10^4 CFU/mouse, or 3.90×10^4 CFU/mouse. From the next day of the inoculation, the compound of Example 1 represented by the formula [1] (3, 10, 30 and 100 mg/kg) or a medium (mixture of equivalent volumes of a 0.1 mol/L lactobionic acid solution and a 0.5 w/v % sodium hydrogencarbonate solution) was orally administered to the mice once a day for 2 days. The numbers of living cells in the lung observed 3 days after the inoculation are shown in FIG. 3 (each group consisted of 5 or 6 mice, average±standard error).
as §3

[18] = test system: Haemophilus influenzae ATCC 43095 strain; experiment: Therapeutic effectiveness in Haemophilus influenzae-infected animals; type: in vivo, mice; details: for number of living cells in the lung: ICR mice, 3 days after inoculation, average±standard error
Protocol: As a bacterium, the Haemophilus influenzae ATCC 43095 strain (bacterium symbol A) was used. Cells of the bacterium cultured overnight on a chocolate agar medium were collected, suspended in a Hemophilus susceptibility test medium or the brain heart infusion medium supplemented with Fildes Enrichment, and then cultured overnight. The culture was diluted with the Hemophilus susceptibility test medium or the brain heart infusion medium supplemented with Fildes Enrichment to prepare a bacterial suspension for inoculation. The bacterial suspension for inoculation (0.05 mL each) was intratracheobronchially administered to mice (ICR, male, 4 weeks old) for infection. The inoculated bacterial amount was 2.25×10^6 CFU/mouse, or 9.00×10^5 CFU/mouse. From the next day of the inoculation, the compound represented by the formula [1] of Example 1 (100 and 200 mg/kg) or a medium (mixture of equivalent volumes of a 0.1 mol/L lactobionic acid solution and a 0.5 w/v % sodium hydrogencarbonate solution) was orally administered to the mice once a day for 2 days. The numbers of living cells in the lung observed 3 days after the inoculation are shown in FIG. 1 (each group consisted of 6 mice, average±standard error).
The notes for FIG. 1 are as follows. As for significant difference relative to the medium administration group, significance was determined by the Steel test, and the symbols * and ** mean p<0.05 and p<0.01, respectively. The MIC value of the compound of Example 1 represented by the formula [I] was 4 μg/mL, and the MIC value of the compound of Reference Example 4 represented by the formula [3] was 4 μg/mL.
In the following descriptions, the numbers of living cells in the lung as the test results may be represented in terms of common logarithm of number of live cells in the lung (CFU/lung) (common logarithm is henceforth indicated as log).

[19] = 30 mg/kg orally once a day for 2 days
[20] = 100 mg/kg orally once a day for 2 days
[21] = 10 mg/kg orally once a day for 2 days, average±standard error
[22] = 30 mg/kg orally once a day for 2 days, 1.30 = lower than detection limit
[23] = 100 mg/kg orally once a day for 2 days, 1.30 = lower than detection limit
[24] = 200 mg/kg orally once a day for 2 days

CCNC(=O)CN1C(=O)O[C@]2(C)[C@@H](CC)OC(=O)[C@H](C)[C@@H](O[C@H]3C[C@@](C)(OC)[C@@](O)(CN(C)CCN(C(C)C)C(C)C)[C@H](C)O3)[C@H](C)[C@@H](O[C@@H]3O[C@H](C)C[C@H](N(C)C)[C@H]3O)[C@@](C)(OC)C[C@@H](C)C(=O)[C@H](C)[C@@H]12 [Example 1]
MIC50 [1]: 4 µg/mL (≈ 3.89 µM) | MIC90 [1]: 8 µg/mL (≈ 7.78 µM) | MIC value [2]: 0.25 µg/mL (≈ 0.243 µM) | number of living cells in the lung [3, 19]: 4.14±0.19 log (CFU/lung) | number of living cells in the lung [3, 20]: 2.28±0.24 log (CFU/lung) | therapeutic effectiveness relative to the compound of Reference Example 4 ([3]; overall conclusion of Test Example 4): superior | MIC (minimum inhibitory concentration) [4]: 0.12 µg/mL (≈ 0.117 µM) | MIC (minimum inhibitory concentration) [5]: 1 µg/mL (≈ 0.972 µM) | MIC (minimum inhibitory concentration) [6]: 4 µg/mL (≈ 3.89 µM) | MIC (minimum inhibitory concentration) [7]: 0.06 µg/mL (≈ 0.0583 µM) | MIC (minimum inhibitory concentration) [8]: 4 µg/mL (≈ 3.89 µM) | MIC (minimum inhibitory concentration) [9]: 0.12 µg/mL (≈ 0.117 µM) | MIC (minimum inhibitory concentration) ([10]; bacterium symbol A): 4 µg/mL (≈ 3.89 µM) | MIC value ([10]; notes for FIG. 1, strain of Test Example 3): 4 µg/mL (≈ 3.89 µM) | MIC (minimum inhibitory concentration) [11]: 2 µg/mL (≈ 1.94 µM) | MIC (minimum inhibitory concentration) [12]: 0.03 µg/mL (≈ 0.0292 µM) | MIC (minimum inhibitory concentration) [13]: 8 µg/mL (≈ 7.78 µM) | MIC (minimum inhibitory concentration) [14]: 0.06 µg/mL (≈ 0.0583 µM) | MIC (minimum inhibitory concentration) [15]: 0.06 µg/mL (≈ 0.0583 µM) | MIC value [16]: 0.12 µg/mL (≈ 0.117 µM) | number of living cells in the lung ([17]; 3 mg/kg orally once a day for 2 days, average±standard error): 6.45±0.18 log (CFU/lung) | number of living cells in the lung [17, 21]: 1.30±0.00 log (CFU/lung) | number of living cells in the lung [17, 22]: 1.30±0.00 log (CFU/lung) | number of living cells in the lung [17, 23]: 1.30±0.00 log (CFU/lung) | therapeutic effectiveness relative to the compound of Reference Example 4 ([17]; overall conclusion of Test Example 5): superior | number of living cells in the lung [18, 20]: 3.54±0.49 log (CFU/lung) | number of living cells in the lung [18, 24]: 2.83±0.53 log (CFU/lung) | therapeutic effectiveness relative to the compound of Reference Example 4 ([18]; overall conclusion of Test Example 3): comparable

CC[C@H]1OC(=O)[C@H](C)[C@@H](O[C@H]2C[C@@](C)(OC)[C@@](O)(CN(C)CCN(CC)CC)[C@H](C)O2)[C@H](C)[C@@H](O[C@@H]2O[C@H](C)C[C@H](N(C)C)[C@H]2O)[C@@](C)(OC)C[C@@H](C)C(=O)[C@H](C)[C@H]2N(CCCS(C)(=O)=O)C(=O)O[C@]12C [Reference Example 4, reference compound]
MIC50 [1]: 4 µg/mL (≈ 3.86 µM) | MIC90 [1]: 8 µg/mL (≈ 7.73 µM) | MIC ([2]; Streptococcus pneumoniae, 1101STRAIN): 0.12 µg/mL (≈ 0.116 µM) | number of living cells in the lung ([3]; 10 mg/kg orally once a day for 2 days): 5.86±0.12 log (CFU/lung) | number of living cells in the lung [3, 19]: 5.22±0.16 log (CFU/lung) | number of living cells in the lung [3, 20]: 3.65±0.36 log (CFU/lung) | MIC ([4]; Streptococcus pyogenes, MSC07812, read-out: MIC (minimum inhibitory concentration)): 0.25 µg/mL (≈ 0.241 µM) | MIC ([5]; Streptococcus, ATCC29213, read-out: MIC (minimum inhibitory concentration)): 0.5 µg/mL (≈ 0.483 µM) | MIC ([6]; Haemophilus influenzae, NSC17960, read-out: MIC (minimum inhibitory concentration)): 4 µg/mL (≈ 3.86 µM) | MIC ([7]; Streptococcus pneumoniae, ATCC49619, read-out: MIC (minimum inhibitory concentration)): 0.03 µg/mL (≈ 0.029 µM) | MIC ([8]; Streptococcus pneumoniae, MSC07365, read-out: MIC (minimum inhibitory concentration)): 4 µg/mL (≈ 3.86 µM) | MIC ([9]; Streptococcus pneumoniae, ATCC700904, read-out: MIC (minimum inhibitory concentration)): 0.12 µg/mL (≈ 0.116 µM) | MIC ([10]; bacterium symbol A, read-out: MIC (minimum inhibitory concentration)): 4 µg/mL (≈ 3.86 µM) | MIC ([10]; notes for FIG. 1, strain of Test Example 3, read-out: MIC value): 4 µg/mL (≈ 3.86 µM) | MIC ([11]; Streptococcus pyogenes, MSC07811, read-out: MIC (minimum inhibitory concentration)): 4 µg/mL (≈ 3.86 µM) | MIC ([12]; Streptococcus pneumoniae, MSC07465, read-out: MIC (minimum inhibitory concentration)): 0.03 µg/mL (≈ 0.029 µM) | MIC ([13]; Haemophilus influenzae, MSC17946, read-out: MIC (minimum inhibitory concentration)): 8 µg/mL (≈ 7.73 µM) | MIC ([14]; Streptococcus pneumoniae, MSC08607, read-out: MIC (minimum inhibitory concentration)): 0.06 µg/mL (≈ 0.0579 µM) | MIC ([15]; Streptococcus pyogenes, ATCC12344, read-out: MIC (minimum inhibitory concentration)): 0.06 µg/mL (≈ 0.0579 µM) | MIC ([16]; Streptococcus pneumoniae, 1028STRAIN): 0.03 µg/mL (≈ 0.029 µM) | number of living cells in the lung [17, 21]: 5.67±0.38 log (CFU/lung) | number of living cells in the lung [17, 22]: 1.30±0.00 log (CFU/lung) | number of living cells in the lung [17, 23]: 1.30±0.00 log (CFU/lung) | number of living cells in the lung [18, 20]: 4.37±0.27 log (CFU/lung) | number of living cells in the lung [18, 24]: 2.53±0.23 log (CFU/lung)
